Blank lines part the entries; values can stand above or below the compound they belong to.
Legend:
[1] = target: Tyrosine-protein kinase Lck (Homo sapiens, UniProt P06239); conditions: at 10 µM
[2] = target: Myosin light chain kinase, smooth muscle (Homo sapiens, UniProt Q15746); test: Selectivity interaction (Ambit KINOMEscan and KiNATiv profiling in Jurkat cells) EUB0000090b MYLK; format: cell-based; conditions: at 1 µM
[3] = target: Serine/threonine-protein kinase Nek6 (Homo sapiens) (UniProt Q9HC98); test: Selectivity interaction (Ambit KINOMEscan and KiNATiv profiling in Jurkat cells) EUB0000090b NEK6; format: cell-based; conditions: at 1 µM
[4] = target: DNA-dependent protein kinase catalytic subunit (Homo sapiens) (UniProt P78527); test: Selectivity interaction (Kinase panel (Invitrogen)) EUB0000639a PRKDC; conditions: at 200 nM
[5] = target: T1, Protein kinase C iota type (Homo sapiens) (UniProt P41743); test: Selectivity interaction (Kinase panel (Invitrogen)) EUB0000639a PRKCI; conditions: at 200 nM
T1 sequence (whole entry): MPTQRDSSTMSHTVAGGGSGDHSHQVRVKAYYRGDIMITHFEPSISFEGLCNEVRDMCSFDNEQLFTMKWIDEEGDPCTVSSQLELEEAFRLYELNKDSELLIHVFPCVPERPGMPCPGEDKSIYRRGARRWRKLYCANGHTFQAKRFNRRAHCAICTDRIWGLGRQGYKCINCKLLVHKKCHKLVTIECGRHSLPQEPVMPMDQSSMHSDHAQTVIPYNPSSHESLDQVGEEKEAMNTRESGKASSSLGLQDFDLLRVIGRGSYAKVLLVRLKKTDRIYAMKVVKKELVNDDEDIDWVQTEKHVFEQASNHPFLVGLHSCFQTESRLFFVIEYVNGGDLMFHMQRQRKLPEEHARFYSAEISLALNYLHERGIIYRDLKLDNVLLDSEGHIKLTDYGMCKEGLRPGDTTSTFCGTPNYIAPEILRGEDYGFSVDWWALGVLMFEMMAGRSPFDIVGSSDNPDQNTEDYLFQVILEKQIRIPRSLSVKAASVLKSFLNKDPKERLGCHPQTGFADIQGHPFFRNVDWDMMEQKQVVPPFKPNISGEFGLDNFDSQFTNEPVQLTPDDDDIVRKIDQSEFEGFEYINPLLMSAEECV

[6] = target: Polycomb protein SUZ12 (Homo sapiens) (UniProt Q15022); test: Selectivity interaction (Methyltransferase screen (radiometric assays, panel of 8 PRMTs, 21 protein lysine methyltransferases, 3 DNA methyltransferases, and one RNA methyltransferase)) EUB0000271b SUZ12
[7] = target: Casein kinase I isoform gamma-3 (Homo sapiens) (UniProt Q9Y6M4); test: Selectivity interaction (KinomeScan (DiscoverX)) EUB0001079a CSNK1G3; conditions: at 1 µM
[8] = target: T2, Ephrin type-A receptor 3 (Homo sapiens) (UniProt P29320); test: Selectivity interaction (SelectScreen profiling (Invitrogen)) EUB0000607a EPHA3; conditions: at 2 µM
T2 sequence (whole entry): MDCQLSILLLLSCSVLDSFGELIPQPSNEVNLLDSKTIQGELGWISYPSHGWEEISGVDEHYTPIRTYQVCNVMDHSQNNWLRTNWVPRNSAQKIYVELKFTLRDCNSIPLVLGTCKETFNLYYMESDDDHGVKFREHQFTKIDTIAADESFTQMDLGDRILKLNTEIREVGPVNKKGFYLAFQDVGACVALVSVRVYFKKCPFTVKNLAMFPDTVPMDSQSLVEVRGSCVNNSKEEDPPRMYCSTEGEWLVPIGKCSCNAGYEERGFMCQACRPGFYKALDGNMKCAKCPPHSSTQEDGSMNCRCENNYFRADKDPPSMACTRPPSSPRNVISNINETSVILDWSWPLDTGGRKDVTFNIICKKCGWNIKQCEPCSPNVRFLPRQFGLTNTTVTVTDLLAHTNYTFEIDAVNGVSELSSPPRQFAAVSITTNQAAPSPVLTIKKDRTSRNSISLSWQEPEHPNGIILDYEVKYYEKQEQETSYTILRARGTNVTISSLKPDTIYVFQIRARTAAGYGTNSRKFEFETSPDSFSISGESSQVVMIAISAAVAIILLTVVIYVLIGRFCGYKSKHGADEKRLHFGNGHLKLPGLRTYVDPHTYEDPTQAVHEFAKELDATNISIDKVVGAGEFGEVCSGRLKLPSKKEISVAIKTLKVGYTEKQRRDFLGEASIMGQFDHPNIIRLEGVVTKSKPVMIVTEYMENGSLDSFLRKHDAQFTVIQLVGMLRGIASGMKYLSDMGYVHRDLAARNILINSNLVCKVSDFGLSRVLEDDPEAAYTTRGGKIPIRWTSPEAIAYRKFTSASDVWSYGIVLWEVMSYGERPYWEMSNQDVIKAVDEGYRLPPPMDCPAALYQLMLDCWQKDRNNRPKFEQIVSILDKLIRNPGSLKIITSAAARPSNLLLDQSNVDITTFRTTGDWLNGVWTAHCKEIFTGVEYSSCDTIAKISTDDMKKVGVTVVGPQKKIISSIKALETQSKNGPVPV

[9] = target: Vascular endothelial growth factor receptor 1 (Homo sapiens) (UniProt P17948); test: Selectivity interaction (SelectScreen profiling (Invitrogen)) EUB0000607a FLT1; conditions: at 2 µM
[10] = target: T3, Serine/threonine-protein kinase 17A (Homo sapiens) (UniProt Q9UEE5); test: Selectivity interaction (KinomeScan (DiscoverX)) EUB0000666a STK17A; conditions: at 10 µM
T3 sequence (whole entry): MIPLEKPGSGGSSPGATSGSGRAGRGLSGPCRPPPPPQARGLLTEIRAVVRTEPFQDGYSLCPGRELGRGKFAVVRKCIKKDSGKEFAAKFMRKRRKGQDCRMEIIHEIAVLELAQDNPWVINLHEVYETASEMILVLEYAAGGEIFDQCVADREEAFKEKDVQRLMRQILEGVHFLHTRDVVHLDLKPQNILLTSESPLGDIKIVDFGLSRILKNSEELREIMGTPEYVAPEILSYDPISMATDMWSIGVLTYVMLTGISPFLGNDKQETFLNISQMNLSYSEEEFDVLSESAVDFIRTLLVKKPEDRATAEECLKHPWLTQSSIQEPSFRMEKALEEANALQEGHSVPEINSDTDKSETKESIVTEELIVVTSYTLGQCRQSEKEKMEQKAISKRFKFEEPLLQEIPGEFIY

Polycomb protein SUZ12 (Homo sapiens), sequence (Q15022 whole entry, canonical isoform): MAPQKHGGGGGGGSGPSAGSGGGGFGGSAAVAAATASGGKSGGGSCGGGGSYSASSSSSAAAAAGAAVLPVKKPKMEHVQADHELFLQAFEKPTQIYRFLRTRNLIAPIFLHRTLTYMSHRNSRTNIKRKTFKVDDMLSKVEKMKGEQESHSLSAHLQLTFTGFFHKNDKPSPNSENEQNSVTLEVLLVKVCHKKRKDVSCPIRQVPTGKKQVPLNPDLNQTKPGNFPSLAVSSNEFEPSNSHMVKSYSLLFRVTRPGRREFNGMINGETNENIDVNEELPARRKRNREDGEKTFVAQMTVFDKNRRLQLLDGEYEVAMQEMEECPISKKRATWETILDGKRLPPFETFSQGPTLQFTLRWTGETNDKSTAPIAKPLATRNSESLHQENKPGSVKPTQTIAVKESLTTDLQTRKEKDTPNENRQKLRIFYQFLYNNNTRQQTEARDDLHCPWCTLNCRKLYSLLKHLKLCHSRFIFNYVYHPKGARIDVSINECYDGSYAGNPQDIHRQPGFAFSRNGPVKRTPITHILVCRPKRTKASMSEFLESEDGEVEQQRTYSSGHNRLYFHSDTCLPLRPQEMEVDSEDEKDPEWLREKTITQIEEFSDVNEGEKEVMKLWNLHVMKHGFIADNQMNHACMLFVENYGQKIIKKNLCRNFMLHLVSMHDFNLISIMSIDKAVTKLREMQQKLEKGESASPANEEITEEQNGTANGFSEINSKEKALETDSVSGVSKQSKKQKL
Serine/threonine-protein kinase Nek6 (Homo sapiens), sequence (Q9HC98 whole entry): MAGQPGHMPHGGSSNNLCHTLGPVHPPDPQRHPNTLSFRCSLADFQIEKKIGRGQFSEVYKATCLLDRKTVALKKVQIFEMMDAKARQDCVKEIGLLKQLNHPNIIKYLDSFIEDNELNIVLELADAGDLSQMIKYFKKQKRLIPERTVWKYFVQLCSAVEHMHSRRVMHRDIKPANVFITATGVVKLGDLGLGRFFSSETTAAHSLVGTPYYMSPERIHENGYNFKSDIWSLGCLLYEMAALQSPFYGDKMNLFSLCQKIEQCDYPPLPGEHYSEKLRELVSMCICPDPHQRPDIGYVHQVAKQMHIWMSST
Tyrosine-protein kinase Lck, sequence (P06239 2-509 limits assumed): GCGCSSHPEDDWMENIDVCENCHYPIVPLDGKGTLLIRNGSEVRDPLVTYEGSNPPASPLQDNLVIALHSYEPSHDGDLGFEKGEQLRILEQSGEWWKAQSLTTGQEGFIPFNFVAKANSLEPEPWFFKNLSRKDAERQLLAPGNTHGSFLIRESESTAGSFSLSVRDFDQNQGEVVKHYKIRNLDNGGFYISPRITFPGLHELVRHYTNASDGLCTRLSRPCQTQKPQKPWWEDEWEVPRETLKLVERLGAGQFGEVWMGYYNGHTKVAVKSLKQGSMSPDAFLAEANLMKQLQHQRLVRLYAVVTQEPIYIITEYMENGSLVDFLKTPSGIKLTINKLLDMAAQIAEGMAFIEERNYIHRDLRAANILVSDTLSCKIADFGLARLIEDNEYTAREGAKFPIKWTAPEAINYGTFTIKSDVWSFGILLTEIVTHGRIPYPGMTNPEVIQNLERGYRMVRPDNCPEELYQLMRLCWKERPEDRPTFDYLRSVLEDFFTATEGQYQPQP
Vascular endothelial growth factor receptor 1 (Homo sapiens), sequence (P17948 whole entry): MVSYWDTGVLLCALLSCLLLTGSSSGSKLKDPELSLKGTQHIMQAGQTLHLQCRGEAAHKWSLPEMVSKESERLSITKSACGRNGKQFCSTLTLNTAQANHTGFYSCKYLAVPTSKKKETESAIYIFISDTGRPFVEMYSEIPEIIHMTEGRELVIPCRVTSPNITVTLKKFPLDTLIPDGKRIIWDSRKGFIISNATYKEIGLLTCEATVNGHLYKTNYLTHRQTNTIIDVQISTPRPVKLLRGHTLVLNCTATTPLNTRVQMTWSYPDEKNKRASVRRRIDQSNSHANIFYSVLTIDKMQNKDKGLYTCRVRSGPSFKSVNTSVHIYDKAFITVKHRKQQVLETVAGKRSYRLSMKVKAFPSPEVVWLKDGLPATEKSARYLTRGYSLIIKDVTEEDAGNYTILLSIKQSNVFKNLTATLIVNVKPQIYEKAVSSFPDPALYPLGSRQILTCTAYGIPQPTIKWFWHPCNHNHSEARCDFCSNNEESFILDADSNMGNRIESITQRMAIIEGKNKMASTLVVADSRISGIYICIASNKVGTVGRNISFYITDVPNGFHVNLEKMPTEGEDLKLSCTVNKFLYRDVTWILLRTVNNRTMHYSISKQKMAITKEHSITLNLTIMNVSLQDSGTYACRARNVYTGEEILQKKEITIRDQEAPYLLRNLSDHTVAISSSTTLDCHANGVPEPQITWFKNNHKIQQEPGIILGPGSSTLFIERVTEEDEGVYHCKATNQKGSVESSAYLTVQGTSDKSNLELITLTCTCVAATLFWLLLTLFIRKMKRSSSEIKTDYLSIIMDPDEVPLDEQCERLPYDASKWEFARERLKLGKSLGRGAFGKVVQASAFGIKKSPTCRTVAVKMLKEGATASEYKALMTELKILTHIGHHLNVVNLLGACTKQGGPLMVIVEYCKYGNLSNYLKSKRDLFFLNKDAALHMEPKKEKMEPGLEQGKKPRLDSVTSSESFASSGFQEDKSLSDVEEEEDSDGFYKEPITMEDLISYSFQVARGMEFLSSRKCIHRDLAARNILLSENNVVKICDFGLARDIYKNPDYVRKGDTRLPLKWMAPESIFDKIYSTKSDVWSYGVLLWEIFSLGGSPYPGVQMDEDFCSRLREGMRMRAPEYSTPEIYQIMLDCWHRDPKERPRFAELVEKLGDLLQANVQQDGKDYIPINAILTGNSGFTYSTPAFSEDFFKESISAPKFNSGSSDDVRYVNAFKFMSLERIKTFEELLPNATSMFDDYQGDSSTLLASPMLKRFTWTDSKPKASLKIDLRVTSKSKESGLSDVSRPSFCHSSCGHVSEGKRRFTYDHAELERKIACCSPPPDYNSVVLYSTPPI
Casein kinase I isoform gamma-3 (Homo sapiens), sequence (Q9Y6M4 whole entry, looked up, canonical isoform): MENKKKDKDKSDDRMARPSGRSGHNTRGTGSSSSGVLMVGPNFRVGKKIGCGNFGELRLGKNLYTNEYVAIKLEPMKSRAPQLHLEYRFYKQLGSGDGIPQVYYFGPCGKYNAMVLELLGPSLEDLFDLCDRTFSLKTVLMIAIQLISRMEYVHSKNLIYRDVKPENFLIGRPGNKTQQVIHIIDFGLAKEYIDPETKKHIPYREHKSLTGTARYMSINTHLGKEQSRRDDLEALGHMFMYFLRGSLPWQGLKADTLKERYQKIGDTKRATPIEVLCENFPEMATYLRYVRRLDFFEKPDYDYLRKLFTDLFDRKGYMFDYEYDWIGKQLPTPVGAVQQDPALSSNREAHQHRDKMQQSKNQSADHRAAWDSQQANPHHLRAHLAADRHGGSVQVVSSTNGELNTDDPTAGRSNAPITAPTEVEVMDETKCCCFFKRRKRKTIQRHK

SMILES: Cc1cc([C@@H](C)Nc2ccccc2C(=O)O)c2nc(N3CCOCC3)cc(=O)n2c1 [AZD-6482]
% of control [1]: 97%

SMILES: CN(C)C/C=C/C(=O)Nc1ccc(C(=O)N2CCCC(Nc3ncc(Cl)c(-c4c[nH]c5ccccc45)n3)C2)cc1 (stereo unspecified)
% of control [2]: 100%
% of control [3]: 95%

% of inhibition [4]: 7.87%
% of inhibition [5]: 5.1%
SMILES: CC[C@@H]1[C@H](F)C(=O)N[C@@H]1COc1nccc2cc(C(N)=O)c(OC)cc12 [ZIMLOVISERTIB]

SMILES: Cc1cc(C)cc([C@@H]2c3cc(C)ccc3NC(=O)CN2C(=O)c2ccc(Br)s2)c1
% of activity ([6]; at 1 µM): 101%
% of activity ([6]; at 10 µM): 101%

SMILES: Nc1cnc(N2CCc3cc(S(=O)(=O)Nc4c(F)cc(Cl)cc4F)cc(N4CCCC4=O)c32)nc1 [TP-020n]
% of control [7]: 78%

SMILES: CNC(=O)Nc1ccc(-c2nc(N3CC4CCC(C3)O4)c3cnn(C4CCC5(CC4)OCCO5)c3n2)cc1
% of inhibition [8]: 4%
% of inhibition [9]: 8%

SMILES: O=C(NOC[C@H](O)CO)c1ccc(F)c(F)c1Nc1ccc(I)cc1F
% of control [10]: 100%
